Data from article PMC8308777, “Small Molecule–Peptide Conjugates as Dimerization Inhibitors of Leishmania infantum Trypanothione Disulfide Reductase” (Pharmaceuticals, 2021).
Like-named read-outs stand apart in the source and are kept apart here.

Experiments:
[1] = target: T1, Leishmania infantum trypanothione disulfide reductase (LiTryR) (Leishmania infantum, UniProt A4HSF7); test: LiTryR oxidoreductase activity assay (DTNB-coupled); format: biochemical; conditions: no preincubation; for IC50: modified DTNB-coupled assay, 26 °C, HEPES pH 7.5, HIS-LiTryR 7 nM, TS2 1 μM, NADPH 150 μM, inhibitor 0.1-25 μM, IC50 ± SE, three independent experiments in triplicate, read-out: IC50act, LiTryR oxidoreductase activity
T1 construct: HIS; made in house; host or cells: E. coli BL21 (DE3) Rossetta 2
T1 sequence (A4HSF7 entry or part of it): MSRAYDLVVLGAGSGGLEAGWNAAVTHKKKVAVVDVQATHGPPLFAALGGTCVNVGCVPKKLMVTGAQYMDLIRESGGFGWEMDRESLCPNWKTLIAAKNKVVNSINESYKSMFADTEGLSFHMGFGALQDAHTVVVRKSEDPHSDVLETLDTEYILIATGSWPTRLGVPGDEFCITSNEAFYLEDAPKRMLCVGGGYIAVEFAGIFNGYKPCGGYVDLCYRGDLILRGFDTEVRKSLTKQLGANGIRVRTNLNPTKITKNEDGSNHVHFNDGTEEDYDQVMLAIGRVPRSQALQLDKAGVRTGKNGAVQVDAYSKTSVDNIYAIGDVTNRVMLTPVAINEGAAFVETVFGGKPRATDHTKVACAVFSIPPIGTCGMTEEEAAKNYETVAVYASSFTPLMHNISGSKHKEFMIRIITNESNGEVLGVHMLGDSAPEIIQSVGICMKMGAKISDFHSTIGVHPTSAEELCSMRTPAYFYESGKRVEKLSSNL
Method: LiTryR oxidoreductase activity was assessed spectrophotometrically using a modified version of the DTNB-coupled assay, described by Hamilton et al.. Briefly, reactions were performed at 26 °C in 250 μL of HEPES buffer (pH 7.5, 40 mM) containing EDTA (1 mM), NADP^+ (30 μM), DTNB (25 μM), TS2 (1 μM), NADPH (150 μM), glycerol (0.02%), DMSO (1.75%), and recombinant HIS-LiTryR (7 nM). […] Reactions were started by addition of a mixture (50 μL/well) of the substrates (NADPH and TS2).
LiTryR oxidoreductase activity was monitored at 26 °C by an increase in absorbance at 412 nm in an EnSpire Multimode Plate Reader (PerkinElmer, Waltham, MA, USA). In this DTNB-coupled assay, one molecule of T(SH)2 reduces one molecule of DTNB, producing two TNB molecules. The TNB concentration was obtained by multiplying the absorbance values by 100 (50 μM TNB generates 0.5 arbitrary units of absorbance at 412 nm).
For IC50 determinations, the initial velocities were calculated from the slope of the initial linear part of the reaction curves. The initial velocities of the reaction progress curves in the presence of inhibitor (concentrations ranging from 0.1 to 25 μM) were normalized as a percentage with respect to the initial velocity in the presence of the inhibitor vehicle (DMSO). IC50 values were obtained by fitting these percentages to a nonlinear regression model with GraFit 6 software (Erithacus, Horley, Surrey, U.K.). All the assays were performed in triplicate.

[2] = target: T2, HIS-FLAG-tagged LiTryR dimer (Leishmania infantum, UniProt A4HSF7); test: LiTryR dimer quantitation assay (ELISA); format: biochemical; conditions: 16 h at 37 °C; for IC50: HIS-FLAG-LiTryR 400 nM, Tris pH 8.0, 300 mM NaCl, compounds 25 to 3.1 μM, IC50 ± SE, three independent experiments in triplicate, read-out: IC50dim, LiTryR dimer quantitation
T2 construct: made in house; host or cells: E. coli BL21 (DE3) Rossetta 2
T2 sequence (A4HSF7 entry or part of it): as above
Method: The relative amount of the LiTryR dimeric form in the presence of the SMPCs was assessed using an enzyme-linked immunosorbent assay (ELISA), developed in our laboratory. Briefly, HIS-FLAG-tagged LiTryR (400 nM) was incubated in dimerization buffer (1 mL of 50 mM Tris pH 8.0 and 300 mM NaCl) for 16 h at 37 °C with vigorous shaking and in a humid atmosphere in the presence of the different compounds ranging from 25 to 3.1 μM. Following a 15 min centrifugation at 18,000× g and room temperature, the supernatants were added to the α-FLAG-coated plates (200 μL/well) and incubated for 30 min at 37 °C with vigorous shaking in a humid atmosphere. The plates were washed five times with TTBS buffer (2 mM Tris pH 7.6, 138 mM NaCl, and 0.1% Tween-20) and incubated with diluted monoclonal α-HIS horseradish peroxidase (HRP)-conjugated antibody (200 μL/well, 1:50,000, Abcam, Cambridge, UK) in fatty acid- and essentially globulin-free bovine serum albumin (5%) prepared in TTBS buffer for 1 h at room temperature. The plates were washed again five times and the o-phenylenediamine dihydrochloride substrate, prepared according to the manufacturer’s instructions, was added (100 μL/well). The enzymatic reactions were stopped after 5 min by addition of […] (100 μL/well) and the absorbances were measured at 490 nm in an EnSpire Multimode Plate Reader (PerkinElmer, Waltham, MA, USA).
For IC50 determinations, the absorbance values in the presence of different concentrations of inhibitor were normalized as a percentage with respect to the absorbance value in the presence of DMSO. The IC50 values were obtained by fitting these percentages to a nonlinear regression model with GraFit 6 software (Erithacus, Horley, Surrey, U.K.). The assays were carried out in triplicate and repeated three times.

[3] = qualitative, attributed to increased hydrophobicity of the adamantyl substituent

SMILES | IC50 ([1]; SEM) | IC50 ([2]; SEM) | other results
CC[C@H](C)[C@H](NC(=O)CNC(=O)[C@@H](NC(=O)[C@H](CO)NC(=O)[C@H](CCC(N)=O)NC(=O)[C@@H](NC(=O)[C@@H](NC(=O)[C@H](CCCCN)NC(=O)[C@@H]1CCCN1C(=O)COCCOCCNC(=O)Cc1ccccc1)[C@@H](C)CC)[C@@H](C)CC)C(C)C)C(N)=O [1a, Ph-CH2-CO-NH-(CH2)2-O-(CH2)2-O-CH2-CO-NH-PKIIQSVGI-NH2] | 22 ± 0.7 µM | 9.4 ± 0.1 µM | –
CC[C@H](C)[C@H](NC(=O)CNC(=O)[C@@H](NC(=O)[C@H](CO)NC(=O)[C@H](CCC(N)=O)NC(=O)[C@@H](NC(=O)[C@@H](NC(=O)[C@H](CCCCN)NC(=O)[C@@H]1CCCN1C(=O)COCCOCCNC(=O)Cc1ccc2ccccc2c1)[C@@H](C)CC)[C@@H](C)CC)C(C)C)C(N)=O [1b, Naphthyl-CH2-CO-NH-(CH2)2-O-(CH2)2-O-CH2-CO-NH-PKIIQSVGI-NH2] | 18.2 ± 1 µM | 8.7 ± 0.5 µM | –
CC[C@H](C)[C@H](NC(=O)CNC(=O)[C@@H](NC(=O)[C@H](CO)NC(=O)[C@H](CCC(N)=O)NC(=O)[C@@H](NC(=O)[C@@H](NC(=O)[C@H](CCCCN)NC(=O)[C@@H]1CCCN1C(=O)COCCOCCNC(=O)Cc1ccc(-c2ccccc2)cc1)[C@@H](C)CC)[C@@H](C)CC)C(C)C)C(N)=O [1c, Biphenyl-CH2-CO-NH-(CH2)2-O-(CH2)2-O-CH2-CO-NH-PKIIQSVGI-NH2] | 16.6 ± 3.8 µM | 22.9 ± 1.4 µM | –
CC[C@H](C)[C@H](NC(=O)CNC(=O)[C@@H](NC(=O)[C@H](CO)NC(=O)[C@H](CCC(N)=O)NC(=O)[C@@H](NC(=O)[C@@H](NC(=O)[C@H](CCCCN)NC(=O)[C@@H]1CCCN1C(=O)COCCOCCNC(=O)CN1C(=O)c2cccc3cccc1c23)[C@@H](C)CC)[C@@H](C)CC)C(C)C)C(N)=O [1d] | 6.7 ± 0.4 µM | 7.8 ± 0.1 µM | –
CC[C@H](C)[C@H](NC(=O)CNC(=O)[C@@H](NC(=O)[C@H](CO)NC(=O)[C@H](CCC(N)=O)NC(=O)[C@@H](NC(=O)[C@@H](NC(=O)[C@H](CCCCN)NC(=O)[C@@H]1CCCN1C(=O)COCCOCCNC(=O)CC12CC3CC(CC(C3)C1)C2)[C@@H](C)CC)[C@@H](C)CC)C(C)C)C(N)=O [1f, Adamantyl-CH2-CO-NH-(CH2)2-O-(CH2)2-O-CH2-CO-NH-PKIIQSVGI-NH2] | 7.6 ± 1.2 µM | 8.1 ± 0.2 µM | solubility [3]: decrease in solubility
CC[C@H](C)[C@H](NC(=O)CNC(=O)[C@@H](NC(=O)[C@H](CO)NC(=O)[C@H](CCC(N)=O)NC(=O)[C@@H](NC(=O)[C@@H](NC(=O)[C@H](CCCCN)NC(=O)[C@@H]1CCCN1C(=O)COCCNC(=O)Cc1ccccc1)[C@@H](C)CC)[C@@H](C)CC)C(C)C)C(N)=O [2a, Ph-CH2-CO-NH-(CH2)2-O-CH2-CO-NH-PKIIQSVGI-NH2] | 22.3 ± 1.5 µM | 15 ± 0.6 µM | –
CC[C@H](C)[C@H](NC(=O)CNC(=O)[C@@H](NC(=O)[C@H](CO)NC(=O)[C@H](CCC(N)=O)NC(=O)[C@@H](NC(=O)[C@@H](NC(=O)[C@H](CCCCN)NC(=O)[C@@H]1CCCN1C(=O)COCCNC(=O)CN1C(=O)c2cccc3cccc1c23)[C@@H](C)CC)[C@@H](C)CC)C(C)C)C(N)=O [2d] | 6.9 ± 1.9 µM | 7.1 ± 0.1 µM | –
CC[C@H](C)[C@H](NC(=O)CNC(=O)[C@@H](NC(=O)[C@H](CO)NC(=O)[C@H](CCC(N)=O)NC(=O)[C@@H](NC(=O)[C@@H](NC(=O)[C@H](CCCCN)NC(=O)[C@@H]1CCCN1C(=O)CCNC(=O)Cc1ccccc1)[C@@H](C)CC)[C@@H](C)CC)C(C)C)C(N)=O [3a, Ph-CH2-CO-NH-(CH2)2-CO-NH-PKIIQSVGI-NH2] | 20.6 ± 1.6 µM | 12.7 ± 1.1 µM | –
CC[C@H](C)[C@H](NC(=O)CNC(=O)[C@@H](NC(=O)[C@H](CO)NC(=O)[C@H](CCC(N)=O)NC(=O)[C@@H](NC(=O)[C@@H](NC(=O)[C@H](CCCCN)NC(=O)[C@@H]1CCCN1C(=O)Cc1ccccc1)[C@@H](C)CC)[C@@H](C)CC)C(C)C)C(N)=O [4a, Ph-CH2-CO-NH-PKIIQSVGI-NH2] | 10.3 ± 1.8 µM | 11.4 ± 0.1 µM | –
CC[C@H](C)[C@H](NC(=O)CNC(=O)[C@@H](NC(=O)[C@H](CO)NC(=O)[C@H](CCC(N)=O)NC(=O)[C@@H](NC(=O)[C@@H](NC(=O)[C@H](CCCCN)NC(=O)[C@@H]1CCCN1C(=O)CN1C(=O)c2cccc3cccc1c23)[C@@H](C)CC)[C@@H](C)CC)C(C)C)C(N)=O [4d] | 8 ± 1.5 µM | 7.1 ± 0.2 µM | –
CC[C@H](C)[C@H](NC(=O)CNC(=O)[C@@H](NC(=O)[C@H](CO)NC(=O)[C@H](CCC(N)=O)NC(=O)[C@@H](NC(=O)[C@@H](NC(=O)[C@H](CCCCN)NC(=O)[C@@H]1CCCN1C(C)=O)[C@@H](C)CC)[C@@H](C)CC)C(C)C)C(N)=O [TRL38, Ac-PKIIQSVGI-NH2, reference compound] | – | – | LiTryR oxidoreductase activity at 25 μM (%) ([1]; at 25 μM, reliable IC50 could not be determined): 65.1%; IC50 [1]: > 25 µM; IC50 [2]: > 25 µM; LiTryR dimer at 25 μM (%) [2]: 61.4%
CC[C@H](C)[C@H](NC(=O)CNC(=O)[C@@H](NC(=O)[C@H](CO)NC(=O)[C@H](CCC(N)=O)NC(=O)[C@@H](NC(=O)[C@@H](NC(=O)[C@H](CCCCN)NC(=O)[C@@H]1CCCN1C(=O)COCCOCCNCc1ccccc1)[C@@H](C)CC)[C@@H](C)CC)C(C)C)C(N)=O [compound 7, Ph-CH2-NH-(CH2)2-O-(CH2)2-O-CH2-CO-NH-PKIIQSVGI-NH2] | 8.3 ± 1.4 µM | 12.6 ± 0.6 µM | –
CC[C@H](C)[C@H](NC(=O)CNC(=O)[C@@H](NC(=O)[C@H](CO)NC(=O)[C@H](CCC(N)=O)NC(=O)[C@@H](NC(=O)[C@@H](NC(=O)[C@H](CCCCN)NC(=O)[C@@H]1CCCN1C(=O)COCCOCCN(Cc1ccccc1)Cc1ccccc1)[C@@H](C)CC)[C@@H](C)CC)C(C)C)C(N)=O [compound 8, (Ph-CH2)2N-(CH2)2-O-(CH2)2-O-CH2-CO-NH-PKIIQSVGI-NH2] | 9.8 ± 2.3 µM | 7.1 ± 0.5 µM | –
CC[C@H](C)[C@H](NC(=O)CNC(=O)[C@@H](NC(=O)[C@H](CO)NC(=O)[C@H](CCC(N)=O)NC(=O)[C@@H](NC(=O)[C@@H](NC(=O)[C@H](CCCCN)NC(=O)[C@@H]1CCCN1C(=O)COCCOCC[N+](C)(C)Cc1ccccc1)[C@@H](C)CC)[C@@H](C)CC)C(C)C)C(N)=O [compound 9, (Ph-CH2)(Me)2N^+-(CH2)2-O-(CH2)2-O-CH2-CO-NH-PKIIQSVGI-NH2 I^−] | 18.3 ± 2.6 µM | – | IC50 [2]: > 25 µM; LiTryR dimer at 25 μM (%) [2]: 53.3%
CC[C@H](C)[C@H](NC(=O)CNC(=O)[C@@H](NC(=O)[C@H](CO)NC(=O)[C@H](CCC(N)=O)NC(=O)[C@@H](NC(=O)[C@@H](NC(=O)[C@H](CCCCN)NC(=O)[C@@H]1CCCN1C(=O)COCCOCC[N+](C)(Cc1ccccc1)Cc1ccccc1)[C@@H](C)CC)[C@@H](C)CC)C(C)C)C(N)=O [compound 10, (Ph-CH2)2(Me)N^+-(CH2)2-O-(CH2)2-O-CH2-CO-NH-PKIIQSVGI-NH2 I^−] | 9.2 ± 1.1 µM | 21.2 ± 3.5 µM | –
